Results reported in the NIST ThermoML archive (doi:10.1021/je050367p).

How the values were obtained:
[1] = xn = mol fraction of the nth substance listed; conditions: 308.15 K, 100.8 kPa, Liquid; for viscosity: Capillary tube (Ostwald / Ubbelohde) method
[2] = refractive index (Na D-line) (dimensionless); xn = mol fraction of the nth substance listed; conditions: 100.8 kPa, Liquid, Standard Abbe refractometry

CC(C)OC(C)C [diisopropyl ether] + CC(C)CC(C)(C)C
[1]
Conditions	mass density [kg/m3]	viscosity [mPa·s]
x1 = 0.05	680.44	–
x1 = 0.1	681.52	–
x1 = 0.15	682.62	–
x1 = 0.2	683.75	–
x1 = 0.25	684.95	–
x1 = 0.3	686.17	–
x1 = 0.35	687.42	–
x1 = 0.4	688.72	–
x1 = 0.45	690.03	–
x1 = 0.5	691.42	–
x1 = 0.55	692.86	0.336
x1 = 0.6	694.35	0.329
x1 = 0.65	695.92	0.323
x1 = 0.7	697.5	0.316
x1 = 0.75	699.14	0.31
x1 = 0.8	700.83	0.305
x1 = 0.85	702.59	0.299
x1 = 0.9	704.42	0.294
x1 = 0.9499	706.28	0.288
x1 = 1	708.12	0.283

refractive index, [2]
Conditions	288.15 K	298.15 K	308.15 K
x1 = 0.05	1.39293	1.38786	1.38277
x1 = 0.1	1.39183	1.38672	1.38159
x1 = 0.15	1.39072	1.38557	1.38042
x1 = 0.2	1.3896	1.38443	1.37924
x1 = 0.25	1.38846	1.38326	1.37803
x1 = 0.3	1.38733	1.38209	1.37682
x1 = 0.35	1.38619	1.38092	1.37561
x1 = 0.4	1.38504	1.37974	1.3744
x1 = 0.45	1.3839	1.37856	1.37317
x1 = 0.5	1.38274	1.37737	1.37195
x1 = 0.55	1.38158	1.37618	1.37072
x1 = 0.6	1.38042	1.37499	1.36949
x1 = 0.65	1.37926	1.3738	1.36826
x1 = 0.7	1.37809	1.37259	1.36703
x1 = 0.75	1.37691	1.37138	1.36578
x1 = 0.8	1.37573	1.37016	1.36452
x1 = 0.85	1.37456	1.36896	1.36327
x1 = 0.9	1.37337	1.36774	1.36201
x1 = 0.9499	1.37217	1.3665	1.36073
x1 = 1	1.37093	1.36524	1.35944
